Results on one sequence are retold here after publication PMC6172451 (Frontiers in Microbiology, 2018).

For series [1], the system named is L. monocytogenes 54002. Description: Membrane permeabilization, SYTOX Green stain. It counts as cell-based, Listeria monocytogenes. Here is the method:
The fluorescence was detected using RT-PCR instrument combined with 5 μM SYTOX^TM Green Stain (Invitrogen, United States). Cells were resuspended in sterile 20 mM sodium phosphate buffer to give 10^6 CFU/mL approximately. Bacteriocin was added at final concentration of 256 and 128 μg/mL, respectively, while a sample with added sodium phosphate buffer was used as control. Meanwhile, the treated cells were examined using confocal laser scanning microscopy (CLSM; Leica, United States) combined with 5 μM SYTOX^TM Green Dead Cell Stain.

Series [2] deals with papain (Carica papaya, UniProt P00784). The note with it: 360 μL bacteriocin (256 μg/mL) + 40 μL papain, final 1 mg/mL; pH 6.5; 37°C; 3 h; read-out activity against L. monocytogenes 54002; triplicate. Here is the method: (§1) After 3 h of incubation at appropriate the temperature (Table 3), the activity against indicator strain (L. monocytogenes 54002) was determined. Non-enzymic treatment was used as control test.
Chain of papain (P00784 134-345): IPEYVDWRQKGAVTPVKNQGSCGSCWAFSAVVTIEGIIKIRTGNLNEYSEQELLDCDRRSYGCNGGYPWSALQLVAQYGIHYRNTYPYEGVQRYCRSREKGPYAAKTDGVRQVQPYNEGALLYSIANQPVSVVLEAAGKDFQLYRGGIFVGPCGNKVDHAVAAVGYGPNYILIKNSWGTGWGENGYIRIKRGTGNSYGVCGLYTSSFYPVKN

The target of series [3] is chymotrypsin (Bos taurus, UniProt P00766). The note with it: 360 μL bacteriocin (256 μg/mL) + 40 μL chymotrypsin, final 1 mg/mL; pH 7.8; 25°C; 3 h; read-out activity against L. monocytogenes 54002; triplicate. The procedure:
as §1

The target of series [4] is proteinase K (Parengyodontium album, UniProt P06873). As to conditions: 360 μL bacteriocin (256 μg/mL) + 40 μL proteinase K, final 1 mg/mL; pH 7.5; 37°C; 3 h; read-out activity against L. monocytogenes 54002; triplicate. Here is the method:
as §1

The target of series [5] is pepsin (Sus scrofa, UniProt P00791). The note with it: 360 μL bacteriocin (256 μg/mL) + 40 μL pepsin, final 1 mg/mL; pH 3; 37°C; 3 h; read-out activity against L. monocytogenes 54002; triplicate. Here is the method:
as §1

Series [6] is described as follows: pH stability, remaining antibacterial activity. In kind it is physicochemical. The note with it: 256 μg/mL, 3 h at 37°C, readjusted to pH 6.0.
The conditions of series [7]: 1% (V/V) Tween 20, Tween 80, urea, and EDTA at 37°C for 3 h.
Description: After 3 h of incubation at 37°C, the remaining activity against indicator was determined and untreated samples were used as a control test.
Series [8] concerns L. monocytogenes 54002. Kind of series: Mode of action: viable cells and optical density. In kind it is cell-based, Listeria monocytogenes. As to conditions: 256 μg/mL bacteriocin, about 10^8 CFU/mL in 20 mM sodium phosphate buffer, 37°C, after 3 h. The procedure: Cells were harvested and resuspended in sterile 20 mM sodium phosphate buffer to give 10^8 CFU/mL approximately. Bacteriocin was added for final concentration of 256 μg/mL, while a sample without added bacteriocin was used as control. All samples were incubated for 5 h at 37°C. The optical density (600 nm) and viable cells were monitored every 1 h ([Deraz et al., 2007]).

Where two headings read alike, the source gives them in different places. Bridges are numbered along the chain shown (N, C = ends). Where no end group is shown, it is not given here.

Chain of proteinase K (P06873 106-384): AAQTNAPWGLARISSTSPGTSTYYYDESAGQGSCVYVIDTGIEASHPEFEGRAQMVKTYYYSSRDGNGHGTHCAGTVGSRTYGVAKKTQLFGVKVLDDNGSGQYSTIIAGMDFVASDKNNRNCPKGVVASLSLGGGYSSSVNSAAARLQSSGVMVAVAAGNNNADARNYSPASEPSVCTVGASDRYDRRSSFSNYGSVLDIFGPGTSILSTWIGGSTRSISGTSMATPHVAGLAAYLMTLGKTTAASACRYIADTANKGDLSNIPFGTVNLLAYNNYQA
Chain of pepsin (P00791 60-385): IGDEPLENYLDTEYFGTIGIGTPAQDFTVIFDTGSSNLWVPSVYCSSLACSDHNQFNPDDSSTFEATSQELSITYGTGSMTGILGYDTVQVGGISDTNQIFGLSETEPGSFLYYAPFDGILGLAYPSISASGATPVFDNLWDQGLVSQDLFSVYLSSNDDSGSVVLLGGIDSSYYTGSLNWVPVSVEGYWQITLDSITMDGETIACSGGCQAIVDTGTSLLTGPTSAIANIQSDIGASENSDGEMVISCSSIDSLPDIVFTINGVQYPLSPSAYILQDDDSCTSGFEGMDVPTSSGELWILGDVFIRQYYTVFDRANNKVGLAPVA

On to “VIADKYYGNGVSCGKHTCTVDWGEAFSCSVSHLANFGHGKC (disulfide 13-18; cysteines drawn unpaired) [plantaricin LPL-1]”, for which the “Amounts of dead cells (CLSM)” value in series [1] (256 μg/mL for 10, 20 and 30 min, 5 μM SYTOX Green Dead Cell Stain, confocal laser scanning microscopy) is recorded as “increased gradually”. In series [1] (128 and 256 μg/mL, about 10^6 CFU/mL, 5 μM SYTOX Green, RT-PCR instrument, control remained stable), the “Fluorescence intensity (SYTOX Green)” value is given as “increased”. The “Thermal stability in words” value (60, 80, and 100°C for 15 and 30 min) is reported as “remained stable”. Further, the “Remaining antibacterial activity (%)” value (121°C, 20 min, 256 μg/mL, autoclave, Figure 5B) is listed as 58.82% and the “Remaining antibacterial activity (%)” value in series [6] (pH 10, pH set with HCl/NaOH, activity against indicator, Figure 5A) was found to be 25%. In addition, the “Diameter (mm) of inhibition zone after enzyme treatment” value in [2], in series [3], in [4] and in series [5] was 0 mm throughout. The sequence further registered an Activity kept in [6] (pH between 2.0 and 7.0) of 90%. Also, in series [7], the “Stability toward surfactants in words” value was “remained stable”. Also, in series [8], the “Decrease of optical density (600 nm)” value was found to be 0.69 units. Further, the “Decrease of the number of viable cells” value in [8] was determined as 2.11 Log10 cfu.
